ChEMBL document CHEMBL5634134, “Design, synthesis, and biological evaluation of novel 4,4'-bipyridine derivatives acting as CDK9-Cyclin T1 protein-protein interaction inhibitors against triple-negative breast cancer” (Eur J Med Chem, 2023)

Experiment: AUC (0 to t) in Sprague-Dawley rat at 50 mg/kg, ip measured afer 24 hrs by LC-MS/MS analysis
Type: ADME, organism-based
Details: in vivo

Compound: COc1ccc(C(=O)Nc2cc(-c3ccnc(N4CCC(O)CC4)c3)ccn2)cc1
- AUC(0-t) at 24 h: 17000 ng·h/mL
